# Laboratory results published in patent US8168199B2, “Dipeptidyl peptidase IV inhibitors for the treatment of schizophrenia and depression” (priority 2000, dated 2012).
# Assays:
# [1] = test system: Male WistarF/Han (WF) rats; assay: 1 h and 12 h food-intake after i.c.v. P32/98 and NPY (Example 3); format: in vivo, rat
# Procedure: (§1) Animals. Male WistarF/Han (WF) rats (Central Animal Laboratory, Hannover Medical School, Hannover, Germany, weighing 330-370 g, were housed in a sound-proof, temperature controlled (24.0±0.5° C.) room under specific pathogen free conditions with a 12/12 h dark/light cycle (lights on at 07.00 with illumination level of 80 Lux). Food (Altromin lab chow pellets) and tap water were available ad libitum. Under ketamine/xylasine (100/5 mg/kg, i.p.) anesthesia, the rats were fixed in a Kopf stereotaxic frame and implanted with cannulae (Plastic One, Inc., Roanoke, Va., USA) above the lateral ventricle. All research and animal care procedures were approved by the Lower Saxony district government (Hannover, Germany) and followed principles described in the European Community's Council Directive of 24 Nov. 1986 (86/609/EEC).
# Surgery and i.c.v. application. For surgery, rats were anesthetized and prepared with i.c.v. cannulae (coordinates: A: −0.7 mm caudal, L: 1.4 mm lateral to bregma; and V3.2 mm ventral to the skull surface; tooth bar +3.0 above ear bars) using standard stereotaxic procedures as described in detail elsewhere (von Hörsten et al., 1998a, b, c). After a 7-day recovery period, successful ventricle cannulation was confirmed by an angiotensin drinking response (von Hörsten et al., 1998a). Rats showing a positive drinking response (n=59) were then habituated to experimental handling by daily sham injections for seven days.
# Animals were randomly divided into two sets of four experimental groups (n=5-6/group), which completed different consecutive SI test of anxiety. […] The time spent in active social interaction (SI-time), 1 h and 12 h food-intake were measured. […]
# Statistical analysis. Data from repeated observations (food intake) were analyzed by two-way analyses of variance for repeated measures (ANOVA) (factors: “substrain” and “food intake” as repeated measure). Data obtained from simple measures such as DPIV activity or SI time were analyzed by one-way (factor: “substrain”) ANOVA. […]
# [2] = test system: Male WistarF/Han (WF) rats; assay: Social interaction (SI) test with Y1R antagonist BIBP3226, P32/98 and NPY (Example 4); format: in vivo, rat; settings: i.c.v. 50 nmol
# Procedure: as §1, with “330±31 g±SD,” for “330-370 g,”
# Surgery and i.c.v. application. […]
# Animals were randomly divided into eight experimental groups (n=6-8/group), which completed one SI test of anxiety: (1) aCSF+aCSF+aCSF; (2) BIBP+aCSF+aCSF; (3) aCSF+P32/98+aCSF; (4) BIBP+P32/98+aCSF; (5) aCSF+aCSF+NPY; (6) BIBP+aCSF+NPY; (7) aCSF+[…]+NPY; (8) BIBP+P32/98+NPY. […] The time spent in active social interaction (SI-time), 1 h, and 12 h food-intake were measured. […]
# Social interaction (SI) test. […] Behavior was monitored using a video camera placed above the field inside the testing/isolation box. The SI behavior of both rats was recorded on-line from a monitor placed outside on top of the box. The following parameters were scored by an observer (HPN) unaware of the substrain of rats: duration of time spent in sniffing, following, crawling under and over other rats, but not passive body contact (resting, sleeping). […]
# Statistical analysis. Data obtained from the measures SI time and 1 h food intake were analyzed by one-way (factor: “treatment”) ANOVA. […]
smiles,measurement,setting,value
CC[C@H](C)[C@H](N)C(=O)N1CCSC1 [P32/98],dose at which the 1 h feeding effect reached significance,[1]; i.c.v.,0.05 nmol
same,amount of food eaten within 1 h,"[1]; i.c.v. P32/98 5 pmol-500 nmol, NPY 50 pmol-1.6 nmol, dark cycle",mild feeding effect
same,"SI-time, P32/98 alone",[2],acts not anxiolytic-like
